Experimental data taken from US20030180260A1, “Immunotherapy or treating bacterial or viral infection at mucosal surfaces with probiotics, and compositions therefor” (priority 2000, published 2003).
Marks after values point to notes of the source that are not given here.

How the values were obtained:
C albicans = assay: Clearance of C. albicans in mice treated with NO synthase inhibitor; type: in vivo; conditions: ip daily for 3 days after infection; two mouse strains (H2d); FIG. 9
Description: To identify the immune parameters of protection, the levels of IFN-γ were determined at various times following infection with C. albicans. […] Since nitric oxide production is associated with host defence in parasitic infection, quantitation of NO was performed following infection in two mouse strains sharing the same H2d MHC haplotype. In this experiment mice were infected with C albicans and then followed by ip injection with an inhibitor of NO synthase, by injecting NG-monomethyl-L-arginine monoacetate (MNLA) daily for 3 days after which time the clearance rate of yeasts was determined.

Helicobacter pylori = assay: Metronidazole therapy of H. pylori infection in mice pre-treated with probiotic; type: in vivo; conditions: for H. pylori colonisation: L acidophilus 1×10^9 orally 3 times a week for 2 weeks, Metronidazole 0.08 mg/animal for 1 week; for % eradication: compared with saline-treated control group
Description: H. pylori infected mice (5 per group) were treated with Lactobacillus acidophilus (1×10^9 per animal) by oral feeding 3 times a week for 2 weeks prior to treatment with Metronidazole (0.08 mg/animal) for 1 week.

IL-4 = IL-4 production by OVA-stimulated spleen lymphocytes of mice fed L. acidophilus (ELISA); type: in vivo, C57/BI6 mice; conditions: fed intragastrically, OVA-sensitised; spleen lymphocytes stimulated with OVA 5 μg/mL for 4 days; FIG. 1A
Description: (§1) To determine whether probiotic bacteria down-regulate Th2 and up-regulate Th1 cytokine response, C57/BI6 mice were fed intragastrically using a feeding needle, various numbers of Lactobacillus acidophilus (obtained from University of New South Wales, School of Microbiology and Immunology Culture Collection, Sydney, Australia) on consecutive days for 2 weeks after which they were sensitised with 8 μg of ovalbumin (OVA) and aluminium hydroxide in 0.2 mL phosphate-buffered saline administered by peritoneal injection. The mice were further fed ten times with L. acidophilus every two days for two weeks before they were sacrificed. Lymphocytes were isolated by teasing spleens through a sieve, washed with PBS, and resuspended at 10×10^6 One mL aliquots of the cell suspension were dispensed into wells of a 24-well flat-bottomed microtitre plate and stimulated with OVA (5 μg/mL). After incubation for 4 days the supernatants were collected and assayed for IL-4 and IFN-γ production by standard ELISA techniques using IL-4 or IFN-γ monoclonal antibody pairs. Briefly, wells of a 24-well microtitre plate were coated with a capture anti-IL-4 antibody. […] The colour development was read at 450/620 nm in an ELISA plate reader. The level of IL-4 in unknown samples was quantitated by interpolation using a standard curve. […]

NO = assay: Nitric oxide (NO) secretion in saliva after Candida albicans challenge (Griess reaction); type: in vivo, DBA/2 mice; conditions: oral 5×10^9 CFU, FIG. 2
Description: DBA/2 mice (n=3 to 5 per group) were fed Lactobacillus acidophilus and then challenged with Candida albicans as described in Example 3 below. At various times following oral infusion, saliva was collected after injection with pilocarpine to stimulate saliva flow. The concentration of NO in saliva was determined by the Griess reaction according to the method by Gree et al (1982) Anal. Biochem 126:131-138. DBA/2 mice […] male mice (n=3-5 per group) were fed intragastrically every 2 days for 2 weeks with 5×10^9 L. acidophilus in 0.2 mL PBS. One day after the last feed mice were challenged with 10^8 Candida albicans blastospores by swabbing the oral cavity using a fine-tip sterile swab. At various days after infection the number of C. albicans in the oral mucosa was determined. The oral cavity (cheek, tongue and soft palate) was completely swabbed using a fine-tipped cotton swab. The cotton swab was placed in 1 mL PBS and the yeast cells were resuspended by mixing in a vortex mixer before culture of serial 10-fold dilutions on Sabourand dextrose agar supplemented with chloramphenicol at 37° C. The results were expressed as CFU/mL (FIG. 5)

Salmonella typhimurium = assay: Translocation of Salmonella typhimurium to spleen in mice fed L acidophilus (VRI 011) and given killed Salmonella vaccine; type: in vivo, BALB/c mice
Description: Female BALB/c mice 6-8 weeks old were obtained from the Animal Resource Centre, Perth, Wash. Lactobacillus acidophilus strain (VRI 011) and the pathogen Salmonella tyhimurium were obtained from the School of Microbiology and Immunology Type Culture Collection, University of New South Wales.
Mice were given 5 doses of L acidophilus (VRI 011) (1×10^8 cfu per dose) or PBS over a 2 week period after which time mice were immunised intragastrically with a killed oral Salmonella vaccine. Two weeks after immunisation, the mice were sacrificed and the spleens collected for enumeration of L acidophilus and S tyhimurium.

IFN-γ [1] = assay: IFN-γ in saliva and cervical lymph node cells after C. albicans challenge (ELISA); type: in vivo, DBA/2 mice
Description: A further study on responses to Candida albicans infection was conducted in the model described in Example 3.
Candida antigen was prepared from freshly cultured Candida albicans by sonication in a MSE Soniprep. The sonicate was centrifuged for 10 min at 2000 g after which time the supernatant was collected and dialysed against PBS. After protein estimation, the solution was filtered sterilised and stored at −20° C. until needed.
A single cell suspension of cervical lymph node (CLN) cells was prepared by teasing lymph node tissue through a sieve. The cells were collected in RPMI 1640 medium supplemented with 10% foetal calf serum (FCS), washed twice by centrifugation and cultured at 4×10^6 cells per well in the presence of 2.5 μg/mL of Candida antigen in a 24-well plate for 3 days.
The culture supernatants were collected and assayed for IL-4, IL-12 and IFN-γ by ELISA using matched antibody pairs and recombinant cytokines as standards (Pharmingen, San Diego, Calif.). The sensitivity of the cytokine ELISA was […] and the results were expressed in net amounts from which the background was subtracted.
Samples of saliva were obtained according to the procedure described in example 2.

H influenzae = assay: Clearance of non-typable H influenzae from the lungs of rats fed L acidophilus; type: in vivo, DA rats
Description: DA rats (200-250 gm, 8-10 weeks old, Animal Resource Centre, Perth, Wash.) were fed intragastrically L acidophilus in 0.75 mL PBS (2.5×10^10 per rat) or PBS alone every 2 days for 7 days at which time the rats were immuniised with formalin-killed H influenzae ([…]) administered intralumenally (see groups below). Rats continued to be fed every 2 days for 2 weeks and then boosted with 50 μL of formalin killed H influenzae (5×10^8 per rat) administered by the intratracheal route. After further feeding with L acidophilus for a further 7 days, the rats were challenged with 50 μL of live 5×10^8 H influenzae in the lung.
Immunisation Groups (5 Rats/Group):
2H influenzae (intralumenal)+H influenzae (intra-tracheal boost)
3 PBS (intralumenal)+L. acidophilus fed every 2 days
4H influenzae (intralumenal)+H influenzae (intratracheal boost)+L. acidophilus fed every 2 days
After 4 hrs post challenge, the rats were sacrificed and the levels of colonisation in the lung was examined in bronchial lavage (BAL) and lung homogenate (LH). The level of clearance was determined by a plating serial 10-fold dilutions of the lavage fluid or lung homogenate onto chocolate agar plates. The results were expressed as number of colony forming units (CFU.

IFN-γ [2] = assay: IFN-γ production by OVA-stimulated spleen lymphocytes of mice fed L. acidophilus (ELISA); type: in vivo, C57/BI6 mice; conditions: fed intragastrically, OVA-sensitised; spleen lymphocytes stimulated with OVA 5 μg/mL for 4 days; FIG. 1B
Description: as §1

Candida albicans = assay: Resistance to oral C. albicans infection following feeding with probiotic bacteria; type: in vivo, DBA/2 mice; conditions: 5×10^9 intragastrically every 2 days for 2 weeks
Description: DBA/2 mice H2d male mice (n=3-5 per group) were fed intragastrically every 2 days for 2 weeks with 5×10^9 L. acidophilus in 0.2 mL PBS. One day after the last feed mice were challenged with 10^8 Candida albicans blastospores by swabbing the oral cavity using a fine-tip sterile swab. At various days after infection the number of C. albicans in the oral mucosa was determined. The oral cavity (cheek, tongue and soft palate) was completely swabbed using a fine-tipped cotton swab. The cotton swab was placed in 1 mL PBS and the yeast cells were resuspended by mixing in a vortex mixer before culture of serial 10-fold dilutions on Sabourand dextrose agar supplemented with chloramphenicol at 37° C. The results were expressed as CFU/mL (FIG. 5)

[3] = system: H. pylori (Sydney strain 1); assay: Clearance of pre-established H. pylori stomach infection in mice dosed with L. acidophilus; type: in vivo, C57BL/6 mice
Description: Two groups of 5 female C57BL/6 mice were infected with H. pylon (Sydney strain 1) by administration of approx. 10^9 live H. pylori on three consecutive days (days 1, 2 and 3) by gavage. On days 28, 30, 32, 35, 37 and 39 mice were dosed by gavage with live L. acidophilus (5×10^9 in 0.2 mL water) or water (control group).
Twenty-one days later ([…]) mice were killed by pentobarbitone overdose (administered intra-peritoneally) and their stomachs removed. The stomach was dissected into two equal halves and one half was placed in 1 mL of deionised water and homogenised. Serial 10-fold dilutions of stomach homogenate were plated out on chocolate agar plates containing fungizone, vancomycin, bacitracin and nalidixic acid. After incubation for 3 days at 37° C. under microaerophilic conditions, the colonies were counted and the total number of live H. pylori in the original stomach homogenate determined.

[4] = system: Non-typeable Haemophilus influenzae (NTHi); assay: Clearance of NTHi from lungs of rats given a single intraduodenal dose of L. fermentum; type: in vivo, dark agouti (DA) rats
Description: Groups of 6 male, specific pathogen free, dark agouti (DA) rats were given a single dose of PBS or live L. fermentum (2.5×10^10) directly into the duodenal lumen after exposure of the intestine by laparotomy. Twenty-one days later the rats were infected intratracheally with 5×10^8 live Non-typeable Haemophilus influenzae (NTHi). Four hours later the rats were killed by pentobarbitone overdose. The lungs were lavaged with 10 mL PBS to obtain broncho-alveolar lavage fluid (BAL). The lavaged lungs were then homogenised in 10 mL of PBS. Twenty microlitres of ten-fold serial dilutions of BAL and lung homogenate (LH) were plated on chocolate agar plates and incubated in a 10% CO2 incubator at 37° C. overnight. Colonies were counted and the number of live bacteria in the BAL and LH preparations determined. The recovery of live NTHi bacteria, presented as colony forming units (CFU), was as follows: […]

S typhimurium = assay: Translocation of S typhimurium to spleen in mice fed L fermentum and vaccinated with killed oral Salmonella vaccine; type: in vivo, BALB/c mice; conditions: for S typhimurium in spleen (±SEM): live oral challenge
Description: BALB/c female mice (6-8 weeks old) were fed 10^8 L fermentum VRI012 (obtained from University of New South Wales, School of Microbiology and Immunology Culture Collection, Sydney, Australia) before or co-administered with 10^8 killed S typhimurium vaccine four times over a 2 week period. Two weeks after oral administration, the mice were challenged with live S typhimurium administered by the oral route. After sacrifice, the level of colonisation with S typhimurium in the spleen was determined.

Compound: CC(=O)O.CNC(=N)NCCC[C@H](N)C(=O)O [MNLA, NG-monomethyl-L-arginine monoacetate]
- clearance of yeasts compared with untreated mice (C albicans): delayed clearance of yeasts

Compound: Cc1ncc([N+](=O)[O-])n1CCO [Metronidazole, reference compound]
- H. pylori colonisation (Helicobacter pylori): 11.4 ± 2.5 ×10^5 CFU/animal
- % eradication (Helicobacter pylori): 55^b %
- % eradication (Helicobacter pylori; listed as metronidazole): 55%

Compound: Lactobacillus acidophilus [L. acidophilus]
- IL-4 production (IL-4): suppression of IL-4 production in dose-dependent manner
- secretion of NO into saliva, early after challenge (NO; early after C. albicans challenge): increased
- secretion of NO into saliva, later stage (NO; later stage after C. albicans challenge): significantly reduced
- protection against translocation of S typhimurium compared with mice fed PBS (Salmonella typhimurium; fed before or simultaneously with killed oral S typhimurium vaccine, live oral challenge): better protection against translocation
- effect of feeding on the vaccine-induced decrease of translocation (Salmonella typhimurium; feeding in addition to killed oral vaccine): further enhanced
- onset of IFN-γ response after C. albicans challenge (IFN-γ [1]; fed mice challenged with C. albicans, controls no detectable IFN-γ until day 6): early response (day 2)
- IFN-γ response in uninfected mice (IFN-γ [1]; fed mice, no C. albicans challenge, FIGS. 6 and 7): no IFN-γ response
- duration of IFN-γ response after C. albicans challenge versus controls not fed (IFN-γ [1]; still seen in nodes at day 15 and in saliva at day 8): more sustained IFN-γ response
- BAL H influenzae (H influenzae; bronchial lavage, 4 hrs post challenge with 5×10^8 live H influenzae): 0.7 ± 0.3 CFU/mL × 10^8
- LH H influenzae (H influenzae; lung homogenate, 4 hrs post challenge with 5×10^8 live H influenzae): 12.5 ± 5.7 CFU/mL × 10^6
- resistance to H influenzae infection in the lungs (H influenzae; rats fed L acidophilus and immunised with killed H influenzae): more resistance to infection
- resistance to infection, repeated oral doses versus single bolus (H influenzae; repeated oral feeding compared with a single bolus): more resistant to infection than rats given a single bolus
- H. pylori colonisation (Helicobacter pylori): 10.5 ± 1.4 ×10^5 CFU/animal
- % eradication (Helicobacter pylori): 58^a %
- % eradication (Helicobacter pylori; listed as probiotic): 58%
- production of IFN-γ (IFN-γ [2]): enhanced
- resistance to C. albicans infection (oral mucosa CFU) compared to mice fed PBS (Candida albicans; all time points, FIG. 5): more resistant to infection at all time points
- clearance of yeasts from oral cavity by day 6 (Candida albicans; day 6): almost completely cleared
- Number of H. pylori in stomach homogenate ([3]; 5×10^9 by gavage on days 28-39 after infection, killed day 50): 105 ± 14 10^4 CFU
- level of H. pylori infection of the stomach versus control mice ([3]; therapeutic dosing on pre-established infection): lower level of H. pylori infection

Compound: Lactobacillus fermentum [L. fermentum]
- LH, live NTHi recovered ([4]; lung homogenate, CFU, single dose 2.5×10^10 into duodenal lumen, challenge day 21, 4 hours): 0.82 ± 0.37 p = 0.017* 10^6
- BAL CFU, live NTHi recovered ([4]; single dose 2.5×10^10 into duodenal lumen, challenge day 21, 4 hours): 0.49 ± 0.19 CFU (10^6)
- clearance of acute NTHi respiratory infection ([4]; single dose delivered to the gut): enhanced clearance
- S typhimurium in spleen (±SEM) (S typhimurium; 10^8 co-administered with 10^8 killed S typhimurium vaccine): 4.5 ± 0.22 p < 0.05 vs Control Log CFU/g wet wt
- S typhimurium in spleen (±SEM) (S typhimurium; 10^8 fed before 10^8 killed S typhimurium vaccine): 3.8 ± 0.12 p < 0.05 vs Control Log CFU/g wet wt
- level of translocation compared with mice fed PBS (S typhimurium; fed prior to immunisation or co-administered with killed S typhimurium): low levels of translocation
